The structures appear in SMILES notation.

The results in this text go back to patent US20110230566A1, “PERFLUOROCARBON EYE CREAM FORMULATIONS” (priority 2010, published 2011).

Data set [1] in a line: Oxygen and CO2 carrying capacity of the PFC. Format: physicochemical. The note with it: at body temperature. How it is done:
Perfluoro(tert-butylcyclohexane) can carry about 43 mL of oxygen per 100 mL of PFC, and 196 mL of CO2 per 100 mL of PFC at body temperature.

Data set [2] in a line: Physical properties of perfluoro(tert-butylcyclohexane). Format: physicochemical. From the text:
Physical properties of perfluoro(tert-butylcyclohexane) are as follows:
Oxycyte® is a perfluorocarbon emulsion oxygen carrier. The active ingredient in Oxycyte®, perfluoro(tert-butylcyclohexane) (C10F20, MW˜500), also known as F-tert-butylcyclohexane or “FtBu”, is a saturated alicyclic PFC. […] Oxycyte® can be used in the PFC compositions, methods and uses described herein.
Being that the PFCs are slightly lipophilic at body temperature and would help in the transport of oxygen into and removal of carbon dioxide from, e.g., periocular skin.

Regarding `FC(F)(F)C(C(F)(F)F)(C(F)(F)F)C1(F)C(F)(F)C(F)(F)C(F)(F)C(F)(F)C1(F)F` [perfluoro(tert-butylcyclohexane)], the CO2 carried in data set [1] was ~196 mL of CO2 per 100 mL of PFC. Also, the oxygen carried result in data set [1] was “about 43 mL of oxygen per 100 mL of PFC”. The same compound showed a Density in data set [2] of 1.97 g/mL. In data set [2], the “Kinematic Viscosity” value is on record as 5.378 cP. The water solubility result in data set [2] is “non-water soluble”. Moreover, the “Vapor Pressure” value in data set [2] (@ 25° C.) was found to be 3.8 mmHg; in data set [2] (@ 37° C.) it was 4.4 mmHg. The figures for the lipophilicity entry in data set [2] (at body temperature), in data set [2] (at room temperature) and in data set [2] (temperature not stated) were “only slightly lipophilic”, “not lipophilic” and “non-lipophilic”, respectively.
